Data from US10183950B2, “Thienopyrimidine inhibitors of atypical protein kinase C” (Cancer Research Technology Limited, priority 2011, dated 2019).
Where two headings read alike, the source gives them in different places.

Target: T1, full-length human PKCι (Homo sapiens, UniProt P41743)
T1 construct: Recombinant, full-length human PKCι expressed in Sf21 insect cells is also commercially available; purchased; host or cells: Sf21 insect cells
T1 sequence (P41743 1-596): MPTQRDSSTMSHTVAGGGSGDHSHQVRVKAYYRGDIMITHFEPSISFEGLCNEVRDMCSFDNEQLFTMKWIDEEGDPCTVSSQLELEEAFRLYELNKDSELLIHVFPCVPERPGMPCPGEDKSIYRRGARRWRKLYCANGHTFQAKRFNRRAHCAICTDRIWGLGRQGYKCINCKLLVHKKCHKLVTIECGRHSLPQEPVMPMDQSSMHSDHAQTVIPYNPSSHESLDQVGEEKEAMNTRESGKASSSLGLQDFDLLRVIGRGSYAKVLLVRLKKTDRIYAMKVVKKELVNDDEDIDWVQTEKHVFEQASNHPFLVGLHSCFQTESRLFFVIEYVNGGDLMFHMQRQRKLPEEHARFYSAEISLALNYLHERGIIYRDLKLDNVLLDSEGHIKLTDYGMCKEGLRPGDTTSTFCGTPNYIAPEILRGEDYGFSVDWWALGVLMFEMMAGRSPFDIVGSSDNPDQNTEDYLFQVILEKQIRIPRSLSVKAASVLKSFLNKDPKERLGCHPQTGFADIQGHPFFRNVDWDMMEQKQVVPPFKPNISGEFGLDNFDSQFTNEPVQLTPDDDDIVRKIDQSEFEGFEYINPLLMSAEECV
Assay: PKCι IC50 IMAP fluorescence polarisation assay, full-length enzyme
Format: biochemical
Settings: full length PKCi at 15 μM ATP
Description: Assays are based on the ability of PKCι to phosphorylate a commercially available peptide substrate in vitro. […] Recombinant, full-length human PKCι expressed in Sf21 insect cells is also commercially available. Recombinant, kinase-domain human PKCι is expressed and purified in-house.
The procedure below explains how dose response curves for inhibitors of PKCι are obtained.
Compounds to be tested are dissolved in 100% DMSO. […] 1 μl is plated into 384 well black low-binding flat bottomed assay plates which are used immediately. Dilutions and additions of compound to assay plates are carried out using Matrix WellMate® and Matrix PlateMate® Plus liquid handling systems.
The final concentration of peptide substrate in the assay is 100 nM. […] Relevant controls are included, namely no compound and no enzyme. […] The reaction is allowed to incubate for 60 minutes at room temperature, before the reaction is stopped and developed by the addition of 20 μl IMAP™ development reagent (Molecular Devices). IMAP development reagent consists of 0.25% (v/v) IMAP progressive binding reagent, 17% (v/v) IMAP progressive binding buffer A and 3% (v/v) IMAP progressive binding buffer B. The plates are then incubated for 2 hours at room temperature before being read using an appropriate plate reader, for example a Molecular Devices HT Analyst or a BMG Pherastar.

[1] = read-out: IC50 in IMAP assay against full length PKCi
[2] = read-out: IC50 in IMAP assay against full length PKCi (Activity)

| SMILES | IC50 [1] | IC50 [2] |
| --- | --- | --- |
| N[C@H](CNc1nc(-c2ccncc2)nc2c(Nc3ccccc3)csc12)Cc1ccccc1 [compound 485, N*4*-((S)-2-Amino-3-phenyl-propyl)-N*7*-phenyl-2-pyridin-4-yl-thieno[3,2-d]pyrimidine-4,7-diamine] | 0.1 to 1 µM | – |
| N[C@H](CNc1nc(-c2ccncc2)nc2c(C#CCO)csc12)Cc1ccccc1 [compound 515, 3-[4-((S)-2-Amino-3-phenyl-propylamino)-2-pyridin-4-yl-thieno[3,2-d]pyrimidin-7-yl]-prop-2-yn-1-ol] | < 0.1 µM | – |
| CC(C)(O)C#Cc1csc2c(NC[C@@H](N)Cc3ccccc3)nc(-c3ccncc3F)nc12 [compound 509, 4-[4-((S)-2-Amino-3-phenyl-propylamino)-2-(3-fluoro-pyridin-4-yl)-thieno[3,2-d]pyrimidin-7-yl]-2-methyl-but-3-yn-2-ol] | 0.1 to 1 µM | – |
| C[C@H](N)CNc1nc(-c2ccncc2)nc2sc3c(c12)CCN(C(=O)OC(C)(C)C)C3 [compound 96, 4-((S)-2-Amino-propylamino)-2-pyridin-4-yl-5,8-dihydro-6H-pyrido[4′,3′:4,5]thieno[2,3-d]pyrimidine-7-carboxylic acid tert-butyl ester] | – | 10 to 40 µM |
| c1cc(-c2nc(N[C@@H]3CCNC3)c3sccc3n2)cc(NC2CC2)n1 [compound 594, [2-(2-Cyclopropylamino-pyridin-4-yl)-thieno[3,2-d]pyrimidin-4-yl]-(R)-pyrrolidin-3-yl-amine] | 1 to 10 µM | – |
| N[C@H](CNc1nc(-c2ccncc2)nc2c(-c3ccc(Br)cc3)csc12)Cc1ccccc1 [compound 326, (S)-N*1*-[7-(4-Bromo-phenyl)-2-pyridin-4-yl-thieno[3,2-d]pyrimidin-4-yl]-3-phenyl-propane-1,2-diamine] | 1 to 10 µM | – |
| N[C@H](CNc1nc(-c2ccncc2)nc2c(C#CC3(O)CCC3)csc12)Cc1ccccc1 [compound 539, 1-[4-((S)-2-Amino-3-phenyl-propylamino)-2-pyridin-4-yl-thieno[3,2-d]pyrimidin-7-ylethynyl]-cyclobutanol] | < 0.1 µM | – |
| c1ccc(Nc2cc(-c3nc(N[C@@H]4CCNC4)c4sccc4n3)ccn2)nc1 [compound 600, {2-[2-(Pyridin-2-ylamino)-pyridin-4-yl]-thieno[3,2-d]pyrimidin-4-yl}-(R)-pyrrolidin-3-yl-amine] | 1 to 10 µM | – |
| CC(C)Cn1cc(-c2csc3c(NC[C@@H](N)Cc4ccccc4)nc(-c4ccncc4)nc23)cn1 [compound 394, (S)-N*1*-[7-(1-Isobutyl-1H-pyrazol-4-yl)-2-pyridin-4-yl-thieno[3,2-d]pyrimidin-4-yl]-3-phenyl-propane-1,2-diamine] | 1 to 10 µM | – |
| N[C@H](CNc1nc(-c2ccncc2)nc2c(Br)csc12)Cc1ccccc1 [compound 336, (S)—N*1*-(7-Bromo-2-pyridin-4-yl-thieno[3,2-d]pyrimidin-4-yl)-3-phenyl-propane-1,2-diamine] | < 0.1 µM | – |
| NC(CNc1nc(-c2ccncc2F)nc2c(-c3ccco3)csc12)Cc1ccccc1 (stereo in doubt) [compound 432, (R)-N*1*-[2-(3-Fluoro-pyridin-4-yl)-7-furan-2-yl-thieno[3,2-d]pyrimidin-4-yl]-3-phenyl-propane-1,2-diamine] | 0.1 to 1 µM | – |
| Cc1ccc(-c2c(C(C)(C)C)sc3c(NC[C@@H](N)Cc4ccccc4)nc(-c4ccncc4)nc23)s1 [compound 447, (S)-N*1*-[6-tert-Butyl-7-(5-methyl-thiophen-2-yl)-2-pyridin-4-yl-thieno[3,2-d]pyrimidin-4-yl]-3-phenyl-propane-1,2-diamine] | 1 to 10 µM | – |
| COc1cnccc1-c1nc(NC[C@@H](N)Cc2ccccc2)c2c3c(sc2n1)CCCC3 [compound 102, (S)—N*1*-[2-(3-methoxy-pyridin-4-yl)-5,6,7,8-tetrahydro-benzo[4,5]thieno[2,3-d]pyrimidin-4-yl]-3-phenyl-propane-1,2-diamine] | – | 10 to 40 µM |
| Fc1cnccc1-c1nc(N[C@@H]2CCNC2)c2sccc2n1 [compound 354, [2-(3-Fluoro-pyridin-4-yl)-thieno[3,2-d]pyrimidin-4-yl]-(R)-pyrrolidin-3-yl-amine] | 10 to 40 µM | – |
| c1cc(-c2nc(N[C@@H]3CCNC3)c3sccc3n2)cc(Nc2ccc(N3CCCCC3)cc2)n1 [compound 608, {2-[2-(4-Piperidin-1-yl-phenylamino)-pyridin-4-yl]-thieno[3,2-d]pyrimidin-4-yl}-(R)-pyrrolidin-3-yl-amine] | 0.1 to 1 µM | – |
| C[C@@H](O)C#Cc1csc2c(NC[C@@H](N)Cc3ccccc3)nc(-c3ccncc3)nc12 [compound 534, (R)-4-[4-((S)-2-Amino-3-phenyl-propylamino)-2-pyridin-4-yl-thieno[3,2-d]pyrimidin-7-yl]-but-3-yn-2-ol] | < 0.1 µM | – |
| CC(C)(C)[Si](C)(C)C#Cc1csc2c(NC[C@@H](N)Cc3ccccc3)nc(-c3ccncc3)nc12 [compound 399, (S)-N*1*-{7-[(tert-Butyl-dimethyl-silanyl)-ethynyl]-2-pyridin-4-yl-thieno[3,2-d]pyrimidin-4-yl}-3-phenyl-propane-1,2-diamine] | 1 to 10 µM | – |
| N[C@H](CNc1nc(-c2ccncc2)nc2c(-c3ccc[nH]3)csc12)Cc1ccccc1 [compound 397, (S)-3-Phenyl-N*1*-[2-pyridin-4-yl-7-(1H-pyrrol-2-yl)-thieno[3,2-d]pyrimidin-4-yl]-propane-1,2-diamine] | 0.1 to 1 µM | – |
| CC(C)(O)C#Cc1c(C(C)(C)C)sc2c(NC[C@@H](N)Cc3ccccc3)nc(-c3ccncc3)nc12 [compound 505, 4-[4-((S)-2-Amino-3-phenyl-propylamino)-6-tert-butyl-2-pyridin-4-yl-thieno[3,2-d]pyrimidin-7-yl]-2-methyl-but-3-yn-2-ol] | 1 to 10 µM | – |
| NCCNc1nc(-c2ccncc2)nc2sc3c(c12)CCN(C(=O)c1ccccc1)C3 [compound 27, [4-(2-Amino-ethylamino)-2-pyridin-4-yl-5,8-dihydro-6H-pyrido[4′,3′:4,5]thieno[2,3-d]pyrimidin-7-yl]-phenyl-methanone] | – | 10 to 40 µM |
| Cc1sc2c(N[C@H]3CCNC3)nc(-c3ccncc3)nc2c1Br [compound 332, (7-Bromo-6-methyl-2-pyridin-4-yl-thieno[3,2-d]pyrimidin-4-yl)-(S)-pyrrolidin-3-yl-amine] | 1 to 10 µM | – |
| Cc1sc2c(NCCN)nc(-c3ccncc3)nc2c1C [compound 309, N*1*-(6,7-Dimethyl-2-pyridin-4-yl-thieno[3,2-d]pyrimidin-4-yl)-ethane-1,2-diamine] | 1 to 10 µM | – |
| CC(C)(C)c1sc2c(NCCN)nc(-c3ccncc3)nc2c1Br [compound 333, N*1*-(7-Bromo-6-tert-butyl-2-pyridin-4-yl-thieno[3,2-d]pyrimidin-4-yl)-ethane-1,2-diamine] | 10 to 40 µM | – |
| CC(C)(N)C#Cc1csc2c(NC[C@@H](N)Cc3ccccc3)nc(-c3ccncc3)nc12 [compound 516, (S)-N*1*-[7-(3-Amino-3-methyl-but-1-ynyl)-2-pyridin-4-yl-thieno[3,2-d]pyrimidin-4-yl]-3-phenyl-propane-1,2-diamine] | 1 to 10 µM | – |
| N[C@H](CNc1nc(-c2cc[n+]([O-])cc2)nc2c(Br)csc12)Cc1ccccc1 [compound 564, (S)—N*1*-[7-Bromo-2-(1-oxy-pyridin-4-yl)-thieno[3,2-d]pyrimidin-4-yl]-3-phenyl-propane-1,2-diamine] | 1 to 10 µM | – |
| CCC[C@H](O)C#Cc1csc2c(NC[C@@H](N)Cc3ccccc3)nc(-c3ccncc3)nc12 [compound 526, (S)-1-[4-((S)-2-Amino-3-phenyl-propylamino)-2-pyridin-4-yl-thieno[3,2-d]pyrimidin-7-yl]-hex-1-yn-3-ol] | 0.1 to 1 µM | – |
| CCc1cc(-c2csc3c(NC[C@@H](N)Cc4ccccc4)nc(-c4ccncc4)nc23)[nH]n1 [compound 571, (S)-N*1*-[7-(5-Ethyl-2H-pyrazol-3-yl)-2-pyridin-4-yl-thieno[3,2-d]pyrimidin-4-yl]-3-phenyl-propane-1,2-diamine] | < 0.1 µM | – |
| C[C@H](Nc1cc(-c2nc(N[C@@H]3CCNC3)c3sccc3n2)ccn1)c1ccccc1 [compound 587, {2-[2-((S)-1-Phenyl-ethylamino)-pyridin-4-yl]-thieno[3,2-d]pyrimidin-4-yl}-(R)-pyrrolidin-3-yl-amine] | 0.1 to 1 µM | – |
| Cc1ccc(C[C@H](N)CNc2nc(-c3ccncc3)nc3sc4c(c23)CCCC4)cc1 [compound 46] | – | 1 to 10 µM |
